Publication PMC4904262 (ACS Medicinal Chemistry Letters, 2016)

What was measured:
CK2 = CK2 (Homo sapiens, UniProt P68400); conditions: 1 µM, ATP at Km
ZAP-70 = ZAP-70 (Homo sapiens, UniProt P43403); conditions: 1 µM, ATP at Km
SYK = SYK (Homo sapiens, UniProt P43405); conditions: 1 µM, ATP at Km
PI3K BETA = PI3K BETA (Homo sapiens, UniProt P42338); conditions: 1 µM, ATP at Km
phospho-STAT1^SER727 = experiment: cells; conditions: Homo sapiens, SW-620, read-out: pSTAT1^SER727 IC50 ± SD
AURKA = AURKA (Homo sapiens, UniProt O14965); conditions: 1 µM, ATP at Km
NEK11 = NEK11 (Homo sapiens, UniProt Q8NG66); conditions: 1 µM, ATP at Km
RSK2 = RSK2 (Homo sapiens, UniProt P51812); conditions: 1 µM, ATP at Km
MINK = MINK (Homo sapiens, UniProt Q8N4C8); conditions: 1 µM, ATP at Km
TXK = TXK (Homo sapiens, UniProt P42681); conditions: 1 µM, ATP at Km
MSK1 = MSK1 (Homo sapiens, UniProt O75582); conditions: 1 µM, ATP at Km
MSK2 = MSK2 (Homo sapiens, UniProt O75676); conditions: 1 µM, ATP at Km
MNK2 = MNK2 (Homo sapiens, UniProt Q9HBH9); conditions: 1 µM, ATP at Km
FLT3 = FLT3 (Homo sapiens, UniProt P36888); conditions: 1 µM, ATP at Km
CKIT = CKIT (Homo sapiens, UniProt P10721); conditions: 1 µM, ATP at Km
HASPIN = HASPIN (Homo sapiens, UniProt Q8TF76); conditions: 1 µM, ATP at Km
IGF-1R = IGF-1R (Homo sapiens, UniProt P08069); conditions: 1 µM, ATP at Km
PKG1BETA = PKG1BETA (Homo sapiens, UniProt Q13976); conditions: 1 µM, ATP at Km
DMPK = DMPK (Homo sapiens, UniProt Q09013); conditions: 1 µM, ATP at Km
PKCGAMMA = PKCGAMMA (Homo sapiens, UniProt P05129); conditions: 1 µM, ATP at Km
CAMKIV = CAMKIV (Homo sapiens, UniProt Q16566); conditions: 1 µM, ATP at Km
ULK2 = ULK2 (Homo sapiens, UniProt Q8IYT8); conditions: 1 µM, ATP at Km
PKCMU = PKCMU (Homo sapiens, UniProt Q15139); conditions: 1 µM, ATP at Km
SNK = SNK (Homo sapiens, UniProt Q9NYY3); conditions: 1 µM, ATP at Km
FER = FER (Homo sapiens, UniProt P16591); conditions: 1 µM, ATP at Km
PAR-1BALPHA = PAR-1BALPHA (Homo sapiens, UniProt Q7KZI7); conditions: 1 µM, ATP at Km
PKCEPSILON = PKCEPSILON (Homo sapiens, UniProt Q02156); conditions: 1 µM, ATP at Km
[…] = […] (Homo sapiens, UniProt Q8IU85); conditions: 1 µM, ATP at Km
PI3K DELTA = PI3K DELTA (Homo sapiens, UniProt O00329); conditions: 1 µM, ATP at Km
MLCK = conditions: 1 µM, ATP at Km
PI3 KINASE (P85A) = PI3 KINASE (P85A) (Homo sapiens, UniProt P42336); conditions: 1 µM, ATP at Km
PRKCQ = PRKCQ (Homo sapiens, UniProt Q04759); conditions: 1 µM, ATP at Km
SIK = SIK (Homo sapiens, UniProt P57059); conditions: 1 µM, ATP at Km
CDK3/CYCLINE = CDK3/CYCLINE (Homo sapiens, UniProt Q00526); conditions: 1 µM, ATP at Km
TSSK1 = TSSK1 (Homo sapiens, UniProt Q9BXA7); conditions: 1 µM, ATP at Km
PIM-3 = PIM-3 (Homo sapiens, UniProt Q86V86); conditions: 1 µM, ATP at Km
BLK = BLK (Homo sapiens, UniProt P51451); conditions: 1 µM, ATP at Km
RSE = RSE (Homo sapiens, UniProt Q06418); conditions: 1 µM, ATP at Km
BRSK2 = BRSK2 (Homo sapiens, UniProt Q8IWQ3); conditions: 1 µM, ATP at Km
TGFBR1 = TGFBR1 (Homo sapiens, UniProt P36897); conditions: 1 µM, ATP at Km
ALK = ALK (Homo sapiens, UniProt Q9UM73); conditions: 1 µM, ATP at Km
KDR = KDR (Homo sapiens, UniProt P35968); conditions: 1 µM, ATP at Km
IRAK1 = IRAK1 (Homo sapiens, UniProt P51617); conditions: 1 µM, ATP at Km
PIM-1 = PIM-1 (Homo sapiens, UniProt P11309); conditions: 1 µM, ATP at Km
TAO3 = TAO3 (Homo sapiens, UniProt Q9H2K8); conditions: 1 µM, ATP at Km

Sequence of ULK2 (Q8IYT8 whole entry): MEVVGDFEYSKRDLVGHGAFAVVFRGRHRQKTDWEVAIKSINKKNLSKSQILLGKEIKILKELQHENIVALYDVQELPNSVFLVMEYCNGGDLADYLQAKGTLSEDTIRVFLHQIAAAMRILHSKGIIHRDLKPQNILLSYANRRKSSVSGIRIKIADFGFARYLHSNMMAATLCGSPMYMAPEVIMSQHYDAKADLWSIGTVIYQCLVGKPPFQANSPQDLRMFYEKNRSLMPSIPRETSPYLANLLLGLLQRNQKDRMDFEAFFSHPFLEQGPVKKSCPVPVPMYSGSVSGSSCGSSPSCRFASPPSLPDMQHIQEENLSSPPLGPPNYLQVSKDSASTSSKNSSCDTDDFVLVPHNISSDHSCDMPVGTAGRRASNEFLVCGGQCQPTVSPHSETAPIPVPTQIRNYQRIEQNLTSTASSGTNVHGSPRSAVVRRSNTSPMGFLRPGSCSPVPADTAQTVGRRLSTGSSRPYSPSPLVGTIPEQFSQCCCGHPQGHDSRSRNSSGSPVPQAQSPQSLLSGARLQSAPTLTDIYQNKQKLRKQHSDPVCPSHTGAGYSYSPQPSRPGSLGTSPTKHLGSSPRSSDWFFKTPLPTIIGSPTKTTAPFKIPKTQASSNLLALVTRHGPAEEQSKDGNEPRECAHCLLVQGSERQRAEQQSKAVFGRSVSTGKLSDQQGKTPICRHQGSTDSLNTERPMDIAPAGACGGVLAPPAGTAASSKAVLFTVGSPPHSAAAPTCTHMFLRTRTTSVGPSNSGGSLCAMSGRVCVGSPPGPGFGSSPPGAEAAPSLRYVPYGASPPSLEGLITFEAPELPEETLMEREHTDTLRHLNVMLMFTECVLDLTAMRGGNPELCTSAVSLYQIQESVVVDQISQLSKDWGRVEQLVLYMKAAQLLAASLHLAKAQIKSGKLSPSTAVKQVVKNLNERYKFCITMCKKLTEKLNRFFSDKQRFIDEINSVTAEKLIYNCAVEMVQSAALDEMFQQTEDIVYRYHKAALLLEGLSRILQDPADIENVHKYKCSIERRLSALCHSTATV
Sequence of AURKA (O14965 whole entry): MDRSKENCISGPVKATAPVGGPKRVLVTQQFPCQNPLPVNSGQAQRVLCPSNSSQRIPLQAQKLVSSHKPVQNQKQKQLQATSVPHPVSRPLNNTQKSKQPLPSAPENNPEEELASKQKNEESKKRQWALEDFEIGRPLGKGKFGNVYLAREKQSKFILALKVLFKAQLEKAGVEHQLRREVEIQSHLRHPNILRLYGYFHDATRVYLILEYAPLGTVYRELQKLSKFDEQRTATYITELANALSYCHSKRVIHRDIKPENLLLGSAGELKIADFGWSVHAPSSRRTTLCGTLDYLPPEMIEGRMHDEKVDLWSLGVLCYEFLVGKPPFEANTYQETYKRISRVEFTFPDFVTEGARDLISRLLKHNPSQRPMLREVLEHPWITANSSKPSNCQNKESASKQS
Sequence of BLK (P51451 whole entry): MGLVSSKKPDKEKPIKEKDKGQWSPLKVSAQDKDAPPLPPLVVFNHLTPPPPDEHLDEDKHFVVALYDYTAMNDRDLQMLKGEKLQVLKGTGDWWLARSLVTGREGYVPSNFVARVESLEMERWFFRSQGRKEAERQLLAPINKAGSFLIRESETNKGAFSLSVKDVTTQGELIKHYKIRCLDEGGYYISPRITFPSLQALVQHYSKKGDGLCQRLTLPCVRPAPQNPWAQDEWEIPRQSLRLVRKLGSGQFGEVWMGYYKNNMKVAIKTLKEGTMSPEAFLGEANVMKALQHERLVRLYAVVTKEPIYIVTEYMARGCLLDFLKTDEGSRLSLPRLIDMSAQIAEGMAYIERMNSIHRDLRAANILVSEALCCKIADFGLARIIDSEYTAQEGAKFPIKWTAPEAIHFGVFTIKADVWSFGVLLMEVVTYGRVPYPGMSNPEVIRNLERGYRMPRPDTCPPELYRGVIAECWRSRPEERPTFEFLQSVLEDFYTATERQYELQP
Sequence of BRSK2 (Q8IWQ3 whole entry): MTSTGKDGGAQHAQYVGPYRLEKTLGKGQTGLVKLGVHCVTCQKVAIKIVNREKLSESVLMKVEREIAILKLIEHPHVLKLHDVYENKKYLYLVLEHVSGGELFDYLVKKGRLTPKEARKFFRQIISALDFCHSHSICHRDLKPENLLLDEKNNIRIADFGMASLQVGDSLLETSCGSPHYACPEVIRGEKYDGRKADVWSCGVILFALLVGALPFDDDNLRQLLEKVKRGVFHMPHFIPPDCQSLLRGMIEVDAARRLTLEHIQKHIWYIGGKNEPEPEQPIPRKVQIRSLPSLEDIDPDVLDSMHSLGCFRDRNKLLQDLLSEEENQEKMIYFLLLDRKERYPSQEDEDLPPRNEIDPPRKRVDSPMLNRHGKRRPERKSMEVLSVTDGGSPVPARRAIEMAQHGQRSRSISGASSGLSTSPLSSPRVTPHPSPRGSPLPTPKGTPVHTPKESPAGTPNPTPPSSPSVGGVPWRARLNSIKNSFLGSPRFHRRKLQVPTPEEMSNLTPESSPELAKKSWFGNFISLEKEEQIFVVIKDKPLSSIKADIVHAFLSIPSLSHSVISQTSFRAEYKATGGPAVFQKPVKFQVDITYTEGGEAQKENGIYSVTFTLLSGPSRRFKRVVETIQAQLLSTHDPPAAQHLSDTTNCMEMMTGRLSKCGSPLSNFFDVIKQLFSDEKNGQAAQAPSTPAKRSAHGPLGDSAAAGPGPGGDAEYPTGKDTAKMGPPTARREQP
Sequence of NEK11 (Q8NG66 whole entry): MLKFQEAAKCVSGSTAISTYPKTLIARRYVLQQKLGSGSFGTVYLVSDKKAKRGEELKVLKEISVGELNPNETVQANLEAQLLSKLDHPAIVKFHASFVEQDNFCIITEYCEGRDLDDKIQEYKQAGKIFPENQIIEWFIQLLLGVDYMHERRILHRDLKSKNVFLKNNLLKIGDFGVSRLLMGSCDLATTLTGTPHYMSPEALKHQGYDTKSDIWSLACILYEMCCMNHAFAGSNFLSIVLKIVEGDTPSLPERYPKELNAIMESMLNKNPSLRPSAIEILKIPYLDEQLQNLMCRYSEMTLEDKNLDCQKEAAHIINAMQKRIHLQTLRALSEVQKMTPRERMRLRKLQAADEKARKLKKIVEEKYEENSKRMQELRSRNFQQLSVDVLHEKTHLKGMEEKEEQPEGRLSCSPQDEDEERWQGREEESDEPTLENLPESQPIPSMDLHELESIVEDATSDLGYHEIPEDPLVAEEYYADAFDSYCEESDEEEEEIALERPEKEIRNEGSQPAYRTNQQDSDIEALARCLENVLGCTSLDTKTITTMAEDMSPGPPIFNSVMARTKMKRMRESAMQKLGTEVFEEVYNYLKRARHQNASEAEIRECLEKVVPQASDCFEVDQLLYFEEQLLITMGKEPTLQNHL
Sequence of CAMKIV (Q16566 whole entry): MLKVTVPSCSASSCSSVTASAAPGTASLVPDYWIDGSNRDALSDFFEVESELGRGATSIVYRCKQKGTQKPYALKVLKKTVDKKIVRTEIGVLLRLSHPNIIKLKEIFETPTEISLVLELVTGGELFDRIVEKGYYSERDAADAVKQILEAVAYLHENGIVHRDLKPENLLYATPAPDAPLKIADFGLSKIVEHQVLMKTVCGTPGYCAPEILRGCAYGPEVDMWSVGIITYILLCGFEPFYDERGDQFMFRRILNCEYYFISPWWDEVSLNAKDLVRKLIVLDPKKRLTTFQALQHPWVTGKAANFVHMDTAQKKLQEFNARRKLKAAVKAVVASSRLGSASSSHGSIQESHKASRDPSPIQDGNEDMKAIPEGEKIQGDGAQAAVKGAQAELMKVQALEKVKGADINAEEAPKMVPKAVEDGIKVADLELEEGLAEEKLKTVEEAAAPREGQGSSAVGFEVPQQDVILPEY
Sequence of TSSK1 (Q9BXA7 whole entry): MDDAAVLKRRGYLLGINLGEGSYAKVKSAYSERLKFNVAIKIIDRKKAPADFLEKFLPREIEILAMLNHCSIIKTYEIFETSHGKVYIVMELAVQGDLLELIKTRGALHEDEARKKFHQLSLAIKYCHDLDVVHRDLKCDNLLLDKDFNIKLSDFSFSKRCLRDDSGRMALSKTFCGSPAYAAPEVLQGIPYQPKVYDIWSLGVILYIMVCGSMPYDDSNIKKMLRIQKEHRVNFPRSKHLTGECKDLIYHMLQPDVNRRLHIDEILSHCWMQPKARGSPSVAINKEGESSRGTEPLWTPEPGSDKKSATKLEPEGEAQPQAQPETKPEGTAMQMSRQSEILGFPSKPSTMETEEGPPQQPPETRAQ

COC1CN(C(=O)c2ccc3c(N)ncc(-c4ccc(-c5cnn(C)c5)cc4)c3n2)C1 [Compound 51]
percentage effect (CK2): 5%
percentage effect (ZAP-70): -3%
percentage effect (SYK): -10%
percentage effect (PI3K BETA): -3%
IC50 (phospho-STAT1^SER727): 17.9 ± 10.6 nM
percentage effect (AURKA): -3%
percentage effect (NEK11): 3%
percentage effect (RSK2): 6%
percentage effect (MINK): -11%
percentage effect (TXK): -13%
percentage effect (MSK1): -2%
percentage effect (MSK2): 7%
percentage effect (MNK2): -7%
percentage effect (FLT3): 0%
percentage effect (CKIT): 1%
percentage effect (HASPIN): -7%
percentage effect (IGF-1R): 19%
percentage effect (PKG1BETA): 1%
percentage effect (DMPK): 7%
percentage effect (PKCGAMMA): -1%
percentage effect (CAMKIV): -17%
percentage effect (ULK2): 4%
percentage effect (PKCMU): -3%
percentage effect (SNK): 8%
percentage effect (FER): -18%
percentage effect (PAR-1BALPHA): -9%
percentage effect (PKCEPSILON): 14%
percentage effect ([…]): -3%
percentage effect (PI3K DELTA): -10%
percentage effect (MLCK): 0%
percentage effect (PI3 KINASE (P85A)): -12%
percentage effect (PRKCQ): 5%
percentage effect (SIK): -3%
percentage effect (CDK3/CYCLINE): 4%
percentage effect (TSSK1): 5%
percentage effect (PIM-3): -9%
percentage effect (BLK): 0%
percentage effect (RSE): 17%
percentage effect (BRSK2): 1%
percentage effect (TGFBR1): -5%
percentage effect (ALK): -20%
percentage effect (KDR): 0%
percentage effect (IRAK1): 8%
percentage effect (PIM-1): -10%
percentage effect (TAO3): -16%

COC1CN(C(=O)c2ccc3c(N)ncc(-c4ccc(-c5cnn(C)c5)cc4)c3c2)C1 [Compound 59]
percentage effect (CK2): 8%
percentage effect (ZAP-70): -6%
percentage effect (SYK): -11%
percentage effect (PI3K BETA): -2%
IC50 (phospho-STAT1^SER727): 114 ± 20.6 nM
percentage effect (AURKA): -21%
percentage effect (NEK11): -22%
percentage effect (RSK2): 0%
percentage effect (MINK): -13%
percentage effect (TXK): -7%
percentage effect (MSK1): 0%
percentage effect (MSK2): -12%
percentage effect (MNK2): -4%
percentage effect (FLT3): 16%
percentage effect (CKIT): -3%
percentage effect (HASPIN): -12%
percentage effect (IGF-1R): 9%
percentage effect (PKG1BETA): 1%
percentage effect (DMPK): -11%
percentage effect (PKCGAMMA): 9%
percentage effect (CAMKIV): 23%
percentage effect (ULK2): 8%
percentage effect (PKCMU): 10%
percentage effect (SNK): 3%
percentage effect (FER): 3%
percentage effect (PAR-1BALPHA): -4%
percentage effect (PKCEPSILON): 8%
percentage effect ([…]): 5%
percentage effect (PI3K DELTA): -10%
percentage effect (MLCK): -20%
percentage effect (PI3 KINASE (P85A)): 0%
percentage effect (PRKCQ): -12%
percentage effect (SIK): -5%
percentage effect (CDK3/CYCLINE): -5%
percentage effect (TSSK1): -14%
percentage effect (PIM-3): 9%
percentage effect (BLK): -26%
percentage effect (RSE): -6%
percentage effect (BRSK2): 5%
percentage effect (TGFBR1): -4%
percentage effect (ALK): -30%
percentage effect (KDR): -5%
percentage effect (IRAK1): 14%
percentage effect (PIM-1): -13%
percentage effect (TAO3): -6%
